Patent publication EP4725957A1, “GROUP OF CYCLIC ALKALINE LIPOPEPTIDE COMPOUNDS, AND PREPARATION METHOD THEREFOR AND USE THEREOF” (Institute of Medicinal Biotechnology, Chinese Academy of …, priority 2023, dated 2024)
Converted amounts (≈) assume the structure as drawn. Bridge positions count the residues as written; N and C are the ends. Square brackets hold non-standard residues; d marks the D form. Peptide text beside a SMILES is read from it. * marks the point of attachment. dOrn = NCCC[C@@H](N)C(=O)O; Nonanoyl = CCCCCCCCC(=O)*; Heptanoyl = CCCCCCC(=O)*; Octanoyl = CCCCCCCC(=O)*; Orn = NCCC[C@H](N)C(=O)O; dDap = NC[C@@H](N)C(=O)O; Dab = NCC[C@H](N)C(=O)O; Dap = NC[C@H](N)C(=O)O

Columns and labels:
Format in all cases: cell-based
[1] = Nephrotoxicity assay: in vitro cytotoxicity of HK-2 cells by CCK-8 assay; conditions: human, HK-2 cells (human renal), 72 h incubation with drug-containing medium
How it was run: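 HK-2 human renal cells in RPMI-1640 with 10% FBS were exposed to compounds at final 12.5–500 µg/mL for 72 h, then CCK-8 for 3 h and OD450 read. Viability was normalised to drug-free wells; IC50 came from logarithmic regression over three repeats, with polymyxin B as positive drug.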

[2] = system: Escherichia coli ATCC BAA-2523; conditions: ATCC BAA-2523
How it was run: (§1)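 Minimal inhibitory concentrations are measured following CLSI microdilution guidance in MH broth. Test concentrations run from 64 down to 0.03 mg/L in doubling steps, with a final bacterial load of (2-4) × 10^5 CFU/mL and 16-20 h incubation at 35-37°C.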

[3] = system: Klebsiella pneumoniae KPN+19-15; conditions: KPN+19-15
How it was run: as §1

[4] = system: Acinetobacter baumannii ABA19-1; conditions: ABA19-1
How it was run: as §1

[5] = system: Klebsiella pneumoniae ATCC BAA-1705 (KPC); conditions: ATCC BAA-1705
How it was run: as §1

[6] = system: Pseudomonas aeruginosa ATCC 27853; conditions: ATCC 27853
How it was run: as §1

[7] = system: Pseudomonas aeruginosa PAE19-3; conditions: PAE19-3
How it was run: as §1

[8] = system: Escherichia coli ATCC BAA-2340 (KPC); conditions: ATCC BAA-2340
How it was run: as §1

[9] = system: Acinetobacter baumannii NCTC 13304 (OXA-27); conditions: NCTC 13304
How it was run: as §1

SMILES | IC50 at 72 h [1] | MIC [2] | MIC [3] | MIC [4] | MIC [5] | MIC [6] | MIC [7] | MIC [8] | MIC [9]
CCCCCCC(=O)N[C@@H](CCN)C(=O)N[C@H](C(=O)N[C@H](CO)C(=O)N[C@H]1CCNC(=O)[C@H]([C@@H](C)O)NC(=O)[C@H](CCN)NC(=O)[C@H](CCCN)NC(=O)[C@H]([C@@H](C)O)NC(=O)[C@@H](Cc2ccccc2)NC(=O)[C@H](CCN)NC1=O)[C@@H](C)O [Compound 79, Heptanoyl-Dab-Thr-D-Ser-ring(4-10)[Dab-Dab-D-Phe-Thr-Orn-Dab-Thr]] (Heptanoyl-[Dab]T[dS][Dab][Dab][dF]T[Orn][Dab]T; lactam 4-C) | > 500 µg/mL | 0.03 µg/mL (≈ 0.0258 µM) | 0.5 µg/mL (≈ 0.429 µM) | 0.06 µg/mL (≈ 0.0515 µM) | 0.25 µg/mL (≈ 0.215 µM) | >64 µg/mL | 64 µg/mL (≈ 55 µM) | 0.03 µg/mL (≈ 0.0258 µM) | 0.03 µg/mL (≈ 0.0258 µM)
CCCCCCCC(=O)N[C@@H](CCN)C(=O)N[C@H](C(=O)N[C@H](CN)C(=O)N[C@H]1CCNC(=O)[C@H]([C@@H](C)O)NC(=O)[C@H](CCN)NC(=O)[C@H](CCN)NC(=O)[C@H]([C@@H](C)O)NC(=O)[C@@H](Cc2ccccc2)NC(=O)[C@H](CCN)NC1=O)[C@@H](C)O [Compound 3, Octanoyl-Dab-Thr-D-Dap-ring(4-10)[Dab-Dab-D-Phe-Thr-Dab-Dab-Thr]] (Octanoyl-[Dab]T[dDap][Dab][Dab][dF]T[Dab][Dab]T; lactam 4-C) | > 500 µg/mL | ≤0.03 µg/mL | ≤0.03 µg/mL | ≤0.03 µg/mL | ≤0.03 µg/mL | 0.03 µg/mL (≈ 0.0258 µM) | 0.25 µg/mL (≈ 0.215 µM) | ≤0.03 µg/mL | ≤0.03 µg/mL
CCCCCCCC(=O)N[C@@H](CCN)C(=O)N[C@H](C(=O)N[C@H](CCCN)C(=O)N[C@H]1CCNC(=O)[C@H]([C@@H](C)O)NC(=O)[C@H](CCN)NC(=O)[C@H](CCN)NC(=O)[C@H]([C@@H](C)O)NC(=O)[C@@H](Cc2ccccc2)NC(=O)[C@H](CCN)NC1=O)[C@@H](C)O [Compound 23, Octanoyl-Dab-Thr-D-Orn-ring(4-10)[Dab-Dab-D-Phe-Thr-Dab-Dab-Thr]] (Octanoyl-[Dab]T[dOrn][Dab][Dab][dF]T[Dab][Dab]T; lactam 4-C) | > 500 µg/mL | ≤0.03 µg/mL | 0.125 µg/mL (≈ 0.105 µM) | 0.125 µg/mL (≈ 0.105 µM) | 0.06 µg/mL (≈ 0.0504 µM) | 0.25 µg/mL (≈ 0.21 µM) | 1 µg/mL (≈ 0.839 µM) | ≤0.03 µg/mL | 0.06 µg/mL (≈ 0.0504 µM)
CCCCCCCCC(=O)N[C@@H](CCN)C(=O)N[C@H](C(=O)N[C@H](CO)C(=O)N[C@H]1CCNC(=O)[C@H]([C@@H](C)O)NC(=O)[C@H](CN)NC(=O)[C@H](CCN)NC(=O)[C@H]([C@@H](C)O)NC(=O)[C@@H](Cc2ccccc2)NC(=O)[C@H](CCN)NC1=O)[C@@H](C)O [Compound 85, Nonanoyl-Dab-Thr-D-Ser-ring(4-10)[Dab-Dab-D-Phe-Thr-Dab-Dap-Thr]] (Nonanoyl-[Dab]T[dS][Dab][Dab][dF]T[Dab][Dap]T; lactam 4-C) | 357 ± 28.8 µg/mL (≈ 307 µM) | 0.25 µg/mL (≈ 0.215 µM) | 0.5 µg/mL (≈ 0.429 µM) | 0.06 µg/mL (≈ 0.0515 µM) | 0.25 µg/mL (≈ 0.215 µM) | >64 µg/mL | 64 µg/mL (≈ 55 µM) | 0.25 µg/mL (≈ 0.215 µM) | 0.03 µg/mL (≈ 0.0258 µM)
CCCCCCCCC(=O)N[C@@H](CCN)C(=O)N[C@H](C(=O)N[C@@H](CCCN)C(=O)N[C@H]1CCNC(=O)[C@H]([C@@H](C)O)NC(=O)[C@H](CCN)NC(=O)[C@H](CCN)NC(=O)[C@H]([C@@H](C)O)NC(=O)[C@@H](Cc2ccccc2)NC(=O)[C@H](CCN)NC1=O)[C@@H](C)O [Compound 30, Nonanoyl-Dab-Thr-Orn-ring(4-10)[Dab-Dab-D-Phe-Thr-Dab-Dab-Thr]] (Nonanoyl-[Dab]T[Orn][Dab][Dab][dF]T[Dab][Dab]T; lactam 4-C) | 270 ± 13.1 µg/mL (≈ 224 µM) | 0.03 µg/mL (≈ 0.0249 µM) | 0.03 µg/mL (≈ 0.0249 µM) | 0.125 µg/mL (≈ 0.104 µM) | 0.03 µg/mL (≈ 0.0249 µM) | 0.03 µg/mL (≈ 0.0249 µM) | 0.5 µg/mL (≈ 0.415 µM) | 0.03 µg/mL (≈ 0.0249 µM) | 0.06 µg/mL (≈ 0.0498 µM)
